How the values were obtained:
Assay type in all cases: cell-based
[1] = system: HCC70; assay: Live cell number under carboplatin in HCC70 cells; conditions: 10 μM AP-18; carboplatin 72 h; HCC70, very low TRPA1
Description: (§1) For the measurements of live cell number and cell death under treatment with H2O2, diamide, or chemotherapies, cells were cultured on 96-well plates in the presence or absence of these drugs for indicated times and stained with 5 μM bisBenzimide H 33342 trihydrochloride (Hoechst; Sigma) and 5 μM propidium iodide (PI; Sigma) for 1 h at 37° C. Hoechst- and/or PI-positive cells were counted using a laser scanning cytometer, Acumen Cellista (TTPLabTech). Apoptotic cells induced by H2O2 treatment were measured by staining with Annexin V-Alexa Fluor® 488 conjugate (Life Technologies) and PI in Ca^2+-containing solution (10 mM HEPES pH 7.4, 140 mM NaCl; 2.5 mM CaCl2), followed by flow cytometric measurement of fluorescence using a FACSCalibur. Flow cytometry plots are representative of three independent experiments. […] Viable cells were counted using the Countless Automated Cell Counters (Thermo Fisher Scientific). […] Hoechst- and/or PI-positive areas were measured using Acumen Cellista. Apoptotic cells induced by detachment were measured by staining with 5 μM Hoechst and 5 μM of CellEvent™ Caspase-3/7 Green Detection Reagent (Thermo Fisher Scientific) for 1 h at 37° C. without enzymatic dissociation of cell clumps. Hoechst- and/or CellEvent™ Caspase-3/7 Green Detection Reagent-positive areas were measured using Acumen Cellista. […]

[2] = system: EL-12-58 cells; assay: Live cell number and cell death under H2O2 in EL-12-58 cells; conditions: 10 μM AP-18; H2O2 for 72 h
Description: as §1

[3] = molecular target: T1, TRPA1 (Homo sapiens, UniProt O75762); assay: AITC-evoked [Ca2+]i rises in TRPA1-enriched NSCLC cells; conditions: 10 μM AP-18, 30 μM AITC
T1 construct: endogenous in cells; host or cells: HCC1569 breast cancer cells (2D culture or 3D spheroids; shGFP or shTRPA1 transduced)
T1 sequence (O75762 whole entry): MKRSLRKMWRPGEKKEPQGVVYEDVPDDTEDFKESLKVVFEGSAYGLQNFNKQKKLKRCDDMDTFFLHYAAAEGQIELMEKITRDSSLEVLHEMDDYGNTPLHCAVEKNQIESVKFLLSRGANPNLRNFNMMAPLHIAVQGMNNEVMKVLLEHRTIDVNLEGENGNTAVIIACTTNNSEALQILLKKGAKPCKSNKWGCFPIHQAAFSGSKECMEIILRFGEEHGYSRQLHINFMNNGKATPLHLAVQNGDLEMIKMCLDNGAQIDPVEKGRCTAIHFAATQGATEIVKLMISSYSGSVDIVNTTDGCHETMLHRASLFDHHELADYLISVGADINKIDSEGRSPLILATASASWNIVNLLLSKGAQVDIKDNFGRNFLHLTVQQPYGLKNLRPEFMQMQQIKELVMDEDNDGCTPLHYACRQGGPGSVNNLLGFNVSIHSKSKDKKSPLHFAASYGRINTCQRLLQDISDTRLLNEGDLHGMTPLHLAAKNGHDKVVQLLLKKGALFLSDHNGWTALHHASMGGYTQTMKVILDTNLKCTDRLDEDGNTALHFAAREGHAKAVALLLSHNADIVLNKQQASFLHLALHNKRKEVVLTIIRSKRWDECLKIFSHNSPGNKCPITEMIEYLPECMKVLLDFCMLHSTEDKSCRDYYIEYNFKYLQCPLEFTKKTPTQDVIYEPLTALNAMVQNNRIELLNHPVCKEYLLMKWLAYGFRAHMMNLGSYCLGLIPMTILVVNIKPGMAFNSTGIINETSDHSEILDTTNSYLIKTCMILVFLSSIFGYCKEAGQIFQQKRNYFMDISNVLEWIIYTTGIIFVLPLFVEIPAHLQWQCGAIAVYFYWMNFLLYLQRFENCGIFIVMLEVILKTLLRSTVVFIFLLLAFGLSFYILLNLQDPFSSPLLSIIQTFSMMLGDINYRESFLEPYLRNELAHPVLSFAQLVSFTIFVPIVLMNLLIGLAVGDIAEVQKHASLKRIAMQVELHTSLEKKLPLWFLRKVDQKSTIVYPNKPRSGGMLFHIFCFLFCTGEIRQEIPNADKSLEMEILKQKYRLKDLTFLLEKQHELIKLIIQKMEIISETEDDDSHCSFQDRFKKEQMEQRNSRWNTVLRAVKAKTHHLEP
Description: For the measurement of [Ca^2+]i levels in cells cultured in 2D or 3D (in Matrigel), cells were stained with 3.5 μM fura-2-AM (Life Technology) in the presence of 2.5 mM probenecid (Sigma) and 0.02% Pluronic F-127 (Sigma) for 45 min at 37° C. The fura-2 fluorescence was measured in HBS solution containing 1.25 mM probenecid at 37° C. Fluorescence images of the cells were acquired through the Eclipse Ti-E microscope with ORCA-R2 cooled CCD camera and analyzed with Metafluor. The 340:380-nm ratio images were obtained on a pixel-by-pixel basis and were converted to Ca^2+ concentrations by in vivo calibration using 5 μM ionomycin as described previously (Nishida et al., Biochem. Biophys. Res. Commun., 262:350-354, 1999). 3D images are shown as one section from midstructure. For the measurement of [Ca^2+]i levels in cells cultured in suspension, cell clumps were dissociated with trypsin and [Ca^2+]i levels were determined by using Fluo-4 NW Calcium Assay Kit (Molecular Probes). Cells were stained with Fluo-4 according to the manufacturer's instructions and subjected to flow cytometric analysis (FACSCalibur) using HBS as sheath fluid. [Ca^2+]i levels determined by flow cytometry are reported as mean fluorescence intensity expressed in arbitrary units. […]

[4] = system: BT-549; assay: Live cell number under carboplatin in BT-549 cells; conditions: 10 μM AP-18; carboplatin 72 h; BT-549, very low TRPA1
Description: as §1

[5] = system: HCC1569 spheroids; assay: [H2O2]i by Hyper-2 in HCC1569 spheroids; conditions: AP-18, 300 nM A-967079 or 5 mM NAC
Description: For the measurement of [H2O2]i levels in MCF-10A acini and HCC1569 spheroids, cells were transduced with a lentiviral vector encoding Hyper-2 or Hyper-2 (C199S). The Hyper-2 fluorescence was measured at 37° C. in HEPES-buffered saline (HBS) containing the following (in mM): 150 NaCl, 6 KCl, 1.2 MgSO4, 2 CaCl2, 11.5 glucose, and 25 HEPES (pH adjusted to 7.4 with NaOH). Fluorescence images of the cells were acquired through the Eclipse Ti-E microscope (Nikon) with ORCA-R2 cooled CCD camera (Hamamatsu Photonics) and analyzed with Metafluor image acquisition software (Molecular Devices). The 488:405-nm ratio images were obtained on a pixel-by-pixel basis. 3D images are shown as one section from midstructure. For the measurement of [H2O2]i levels in MCF-10A cells cultured in suspension, cell clumps were dissociated with trypsin and stained with 10 μM peroxy green-1 for 30 min at 37° C. Cells were then subjected to flow cytometric analysis (FACSCalibur; BD Biosciences). ROS levels determined by flow cytometry are reported as mean fluorescence intensity expressed in arbitrary units. Hyper-2 ratio images are representative from two independent experiments and averaged Hyper-2 ratio represents mean±SD from the sum of two independent experiments.

Substance: AP-18
- sensitization to carboplatin [1]: minimal to no effect
- sensitization to H2O2 cytotoxicity [2]: sensitized
- inhibition of AITC-induced [Ca2+]i rises [3]: abolished
- sensitization to carboplatin [4]: minimal to no effect
- increase in [H2O2]i (Hyper-2) in inner region of spheroids [5]: unaffected
